Our source for the IC50 values is US9932340B2, “Substituted indoles” (AbbVie Inc., priority 2014, dated 2018).

In general, IC50 refers to the concentration needed to halve the response being measured.

Bounds are passed on as bounds.

Sequence of SUV420H1 enzyme (Q4FZB7 whole entry): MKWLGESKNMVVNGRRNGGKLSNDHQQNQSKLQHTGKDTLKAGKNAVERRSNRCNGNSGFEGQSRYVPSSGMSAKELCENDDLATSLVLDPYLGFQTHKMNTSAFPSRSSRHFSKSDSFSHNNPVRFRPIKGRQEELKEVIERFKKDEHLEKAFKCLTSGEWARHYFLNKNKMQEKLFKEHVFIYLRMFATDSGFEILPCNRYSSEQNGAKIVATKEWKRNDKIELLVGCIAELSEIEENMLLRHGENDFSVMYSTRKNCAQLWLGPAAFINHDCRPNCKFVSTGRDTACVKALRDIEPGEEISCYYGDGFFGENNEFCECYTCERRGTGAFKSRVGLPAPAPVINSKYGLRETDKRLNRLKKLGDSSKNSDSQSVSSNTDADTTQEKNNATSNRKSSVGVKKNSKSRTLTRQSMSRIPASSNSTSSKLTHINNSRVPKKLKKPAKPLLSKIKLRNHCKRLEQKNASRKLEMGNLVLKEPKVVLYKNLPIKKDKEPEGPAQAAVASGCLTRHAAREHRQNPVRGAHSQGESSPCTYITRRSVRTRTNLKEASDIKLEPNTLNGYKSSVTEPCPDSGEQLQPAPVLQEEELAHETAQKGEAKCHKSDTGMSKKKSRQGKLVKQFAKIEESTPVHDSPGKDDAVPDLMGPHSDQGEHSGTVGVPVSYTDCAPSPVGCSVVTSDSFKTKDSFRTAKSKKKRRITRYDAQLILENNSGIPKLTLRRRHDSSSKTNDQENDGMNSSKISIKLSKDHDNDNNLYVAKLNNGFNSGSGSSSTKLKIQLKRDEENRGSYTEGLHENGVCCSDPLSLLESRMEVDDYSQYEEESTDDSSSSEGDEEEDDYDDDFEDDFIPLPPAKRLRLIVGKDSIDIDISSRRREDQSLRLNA

The assay has as its target SUV420H1 enzyme (Homo sapiens, UniProt Q4FZB7). As to the kind of experiment: TR-FRET SAH SUV420H1 enzyme inhibition assay. It counts as biochemical. The settings on record: Histone Peptide H4(8-30)me1 and SAM, overnight at room temp, TR-FRET detection of SAH, read-out: TR-FRET SAH_SUV420H1 IC50. The method, boiled down:
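SUV420H1 (90 nM) preincubated 30 min with compound (3-fold dilutions, 50 to 0.00075 μM), then H4(8-30)me1 peptide 5 nM and SAM 4 nM added, overnight at room temp. SAH product detected by TR-FRET with Tb anti-SAH antibody and Oregon Green-SAH in RIPA buffer, 4 h; IC50 from Hill fit, asymptotes fixed 0-100%.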
(In general: In TR-FRET formats the signal depends on donor and acceptor labels being close together.)
As for `Cc1ccc(CNCc2cc3cc(Cl)cc(Cn4cnc5c(N)ncnc54)c3[nH]2)cc1` [Example 241, 9-[(5-chloro-2-{[(4-methylbenzyl)amino]methyl}-1H-indol-7-yl)methyl]-9H-purin-6-amine], the IC50 stood at 3.63 µM.
Take `Nc1ncnc2c1ncn2Cc1cc(Cl)cc2cc(CNC(=O)c3ccc4ncoc4c3)[nH]c12` [Example 338, N-({7-[(6-amino-9H-purin-9-yl)methyl]-5-chloro-1H-indol-2-yl}methyl)-1,3-benzoxazole-6-carboxamide]: the IC50 stood at 2.85 µM.
For `COc1ccccc1CNC(=O)NCc1cc2cc(Cl)cc(Cn3cnc4c(N)ncnc43)c2[nH]1` [Example 312, 1-({7-[(6-amino-9H-purin-9-yl)methyl]-5-chloro-1H-indol-2-yl}methyl)-3-(2-methoxybenzyl)urea], the IC50 is over 50 µM.
As for `CC(=O)N1CCC=C(c2cc(Cn3cnc4c(N)ncnc43)c3[nH]c(CNC(=O)c4ccc(C#N)cc4Cl)cc3c2)C1` [Example 280], the figure is 0.0419 µM; as for `CC(=O)N1CCC=C(c2cc(Cn3cnc4c(N)ncnc43)c3[nH]c(CNC(=O)c4cc(C)nnc4C)cc3c2)C1` [Example 238], 0.0457 µM.
Then `Nc1ncnc2c1ncn2Cc1cc(Cl)cc2cc(CNC(=O)c3cccs3)[nH]c12` [Example 144, N-({7-[(6-amino-9H-purin-9-yl)methyl]-5-chloro-1H-indol-2-yl}methyl)thiophene-2-carboxamide], with 4.6 µM; and `Nc1ncnc2c1ncn2Cc1cc(Cl)cc2cc(CNC(=O)c3cscn3)[nH]c12` [Example 140, N-({7-[(6-amino-9H-purin-9-yl)methyl]-5-chloro-1H-indol-2-yl}methyl)-1,3-thiazole-4-carboxamide], with 6.09 µM.
As for `Cc1noc(N)c1C(=O)NCc1cc2cc(Cl)cc(Cn3cnc4c(N)ncnc43)c2[nH]1` [Example 155, 5-amino-N-({7-[(6-amino-9H-purin-9-yl)methyl]-5-chloro-1H-indol-2-yl}methyl)-3-methyl-1,2-oxazole-4-carboxamide], the figure is 3.59 µM; as for `N#Cc1ccc(C(=O)NCc2cc3cc(C4=CCC(F)(F)CC4)cc(Cn4cnc5c(N)ncnc54)c3[nH]2)c(Cl)c1` [Example 278, N-({7-[(6-amino-9H-purin-9-yl)methyl]-5-(4,4-difluorocyclohex-1-en-1-yl)-1H-indol-2-yl}methyl)-2-chloro-4-cyanobenzamide], 0.0674 µM; as for `Cc1cccc(Cl)c1CNCc1cc2cc(Cl)cc(Cn3cnc4c(N)ncnc43)c2[nH]1` [Example 243], 5.46 µM.
Consider `CC(C)(C)CC(=O)NCc1cc2cc(Cl)cc(Cn3cnc4c(N)ncnc43)c2[nH]1` [Example 104, N-({7-[(6-amino-9H-purin-9-yl)methyl]-5-chloro-1H-indol-2-yl}methyl)-3,3-dimethylbutanamide], for which the IC50 was 18.2 µM.
Then `CC(=O)c1cc2cc(Cl)cc(Cn3cnc4c(N)ncnc43)c2[nH]1` [Example 87, 1-{7-[(6-amino-9H-purin-9-yl)methyl]-5-chloro-1H-indol-2-yl}ethanone], with over 50 µM; and `Cc1noc(C)c1C(=O)NCc1cc2cc(-c3cccc(C(N)=O)c3)cc(Cn3cnc4c(N)ncnc43)c2[nH]1` [Example 173, N-({7-[(6-amino-9H-purin-9-yl)methyl]-5-(3-carbamoylphenyl)-1H-indol-2-yl}methyl)-3,5-dimethyl-1,2-oxazole-4-carboxamide], with 0.0412 µM; and `Nc1ncnc2c1ncn2Cc1cc(Cl)cc2cc(CNC(=O)c3ccccc3C(=O)N3CCCC3)[nH]c12` [Example 320, N-({7-[(6-amino-9H-purin-9-yl)methyl]-5-chloro-1H-indol-2-yl}methyl)-2-(pyrrolidin-1-ylcarbonyl)benzamide], with 8.03 µM.
As for `Nc1ncnc2c1ncn2Cc1cc(Cl)cc2cc(CNC(=O)Cc3cccc(Cl)c3)[nH]c12` [Example 252, N-({7-[(6-amino-9H-purin-9-yl)methyl]-5-chloro-1H-indol-2-yl}methyl)-2-(3-chlorophenyl)acetamide], the figure is 2.14 µM.
As for “4-{[({7-[(6-amino-9H-purin-9-yl)methyl]-5-chloro-1H-indol-2-yl}methyl)amino]methyl}-N,N-dimethylbenzamide [Example 318]”, the figure is 3.49 µM; as for `Nc1ncnc2c1ncn2Cc1cc(Cl)cc2cc(CNC(=O)Cc3ccccn3)[nH]c12` [Example 230, N-({7-[(6-amino-9H-purin-9-yl)methyl]-5-chloro-1H-indol-2-yl}methyl)-2-(pyridin-2-yl)acetamide], 16.7 µM.
Take `CC(C)n1ncc2cc(C(=O)NCc3cc4cc(Cl)cc(Cn5cnc6c(N)ncnc65)c4[nH]3)cnc21` [Example 372, N-({7-[(6-amino-9H-purin-9-yl)methyl]-5-chloro-1H-indol-2-yl}methyl)-1-(propan-2-yl)-1H-pyrazolo[3,4-b]pyridine-5-carboxamide]: the IC50 was 0.97 µM.
For the molecule `CN(C)C(=O)CCc1c[nH]c2c(Cn3cnc4c(N)ncnc43)cccc12` [Example 3, 3-{7-[(6-amino-9H-purin-9-yl)methyl]-1H-indol-3-yl}-N,N-dimethylpropanamide], the IC50 is 35 µM.
As to `N#Cc1ccc(C(=O)NCc2cc3cc(Cl)cc(Cn4cnc5c(N)ncnc54)c3[nH]2)cn1` [Example 240, N-({7-[(6-amino-9H-purin-9-yl)methyl]-5-choro-1H-indol-2-yl}methyl)-6-cyanopyridine-3-carboxamide], the IC50 came out at 0.164 µM.
As for `Cc1cccc(-c2ccc(Cn3cnc4c(N)ncnc43)c3[nH]c(CN)cc23)c1` [Example 76, 9-{[2-(aminomethyl)-4-(3-methylphenyl)-1H-indol-7-yl]methyl}-9H-purin-6-amine], the figure is 1.33 µM; as for `Nc1ncnc2c1ncn2Cc1cc(Cl)cc2cc(CNC(=O)c3ccc4[nH]ccc4n3)[nH]c12` [Example 343, N-({7-[(6-amino-9H-purin-9-yl)methyl]-5-chloro-1H-indol-2-yl}methyl)-1H-pyrrolo[3,2-b]pyridine-5-carboxamide], 4.82 µM; as for `Nc1ncnc2c1ncn2Cc1cc(Cl)cc2cc(CNC(=O)C3CCC3)[nH]c12` [Example 111, N-({7-[(6-amino-9H-purin-9-yl)methyl]-5-chloro-1H-indol-2-yl}methyl)cyclobutanecarboxamide], 8.8 µM.
As for `COc1cccc(-c2cc(Cn3cnc4c(N)ncnc43)c3[nH]c(CN)cc3c2)c1` [Example 35, 9-{[2-(aminomethyl)-5-(3-methoxyphenyl)-1H-indol-7-yl]methyl}-9H-purin-6-amine], the figure is 1.09 µM; as for `CC(C)c1noc2ncc(C(=O)NCc3cc4cc(Cl)cc(Cn5cnc6c(N)ncnc65)c4[nH]3)cc12` [Example 370, N-({7-[(6-amino-9H-purin-9-yl)methyl]-5-chloro-1H-indol-2-yl}methyl)-3-(propan-2-yl)[1,2]oxazolo[5,4-b]pyridine-5-carboxamide], 1.69 µM.
Then `Nc1ncnc2c1ncn2Cc1cc(Cl)cc2cc(CNCc3ccccc3)[nH]c12` [Example 207, 9-({2-[(benzylamino)methyl]-5-chloro-1H-indol-7-yl}methyl)-9H-purin-6-amine], with 0.943 µM.
Consider `Nc1ncnc2c1ncn2Cc1cc(Cl)cc2cc(CNC(=O)c3ccc4sccc4c3)[nH]c12` [Example 354, N-({7-[(6-amino-9H-purin-9-yl)methyl]-5-chloro-1H-indol-2-yl}methyl)-1-benzothiophene-5-carboxamide], for which the IC50 amounted to 5.96 µM.
As for `NCc1cc2c(Cl)ccc(Cn3cnc4c(N)ncnc43)c2[nH]1` [Example 62, 9-{[2-(aminomethyl)-4-chloro-1H-indol-7-yl]methyl}-9H-purin-6-amine], the figure is 1.12 µM; as for `Nc1ncnc2c1ncn2Cc1cc(Cl)cc2cc(CNC(=O)c3ccccc3OC(F)F)[nH]c12` [Example 261, N-({7-[(6-amino-9H-purin-9-yl)methyl]-5-chloro-1H-indol-2-yl}methyl)-2-(difluoromethoxy)benzamide], 1.99 µM; as for `Nc1ncnc2c1ncn2Cc1cc(Cl)cc2cc(CNCc3c(F)cccc3Cl)[nH]c12` [Example 215, 9-[(5-chloro-2-{[(2-chloro-6-fluorobenzyl)amino]methyl}-1H-indol-7-yl)methyl]-9H-purin-6-amine], 3.91 µM.
As for `NCc1cc2c(-c3cccnc3)ccc(Cn3cnc4c(N)ncnc43)c2[nH]1` [Example 69, 9-{[2-(aminomethyl)-4-(pyridin-3-yl)-1H-indol-7-yl]methyl}-9H-purin-6-amine], the figure is 0.663 µM.
As for `CN(C)C(=O)c1ccc(-c2ccc(Cn3cnc4c(N)ncnc43)c3[nH]c(CN)cc23)cc1` [Example 86, 4-{2-(aminomethyl)-7-[(6-amino-9H-purin-9-yl)methyl]-1H-indol-4-yl}-N,N-dimethylbenzamide], the figure is 0.915 µM; as for `Cc1noc(C)c1C(=O)NCc1cc2cc(-c3cccc(C#N)c3)cc(Cn3cnc4c(N)ncnc43)c2[nH]1` [Example 172, N-({7-[(6-amino-9H-purin-9-yl)methyl]-5-(3-cyanophenyl)-H-indol-2-yl}methyl)-3,5-dimethyl-1,2-oxazole-4-carboxamide], 0.0661 µM.
As to `COc1cccc(C(=O)NCc2cc3cc(Cl)cc(Cn4cnc5c(N)ncnc54)c3[nH]2)c1` [Example 259, N-({7-[(6-amino-9H-purin-9-yl)methyl]-5-chloro-1H-indol-2-yl}methyl)-3-methoxybenzamide], the IC50 stood at 3.53 µM.
With `Cc1ccccc1-c1ccc(Cn2cnc3c(N)ncnc32)c2[nH]c(CN)cc12` [Example 77, 9-{[2-(aminomethyl)-4-(2-methylphenyl)-1H-indol-7-yl]methyl}-9H-purin-6-amine], the IC50 amounted to 2.63 µM.
Then `C=Cc1ccc(Cn2cnc3c(N)ncnc32)c2[nH]c(CN)cc12` [Example 63, 9-{[2-(aminomethyl)-4-ethenyl-1H-indol-7-yl]methyl}-9H-purin-6-amine], with 4.03 µM.
